The values below come from patent publication US8883801B2, “Substituted pyrazolo[1,5-a]pyrimidines as mTOR inhibitors” (Merck Sharp & Dohme Corp., priority 2010, dated 2014).

The structures appear in SMILES notation.

Chain of human mTOR enzyme (P42345 1360-2549 limits assumed): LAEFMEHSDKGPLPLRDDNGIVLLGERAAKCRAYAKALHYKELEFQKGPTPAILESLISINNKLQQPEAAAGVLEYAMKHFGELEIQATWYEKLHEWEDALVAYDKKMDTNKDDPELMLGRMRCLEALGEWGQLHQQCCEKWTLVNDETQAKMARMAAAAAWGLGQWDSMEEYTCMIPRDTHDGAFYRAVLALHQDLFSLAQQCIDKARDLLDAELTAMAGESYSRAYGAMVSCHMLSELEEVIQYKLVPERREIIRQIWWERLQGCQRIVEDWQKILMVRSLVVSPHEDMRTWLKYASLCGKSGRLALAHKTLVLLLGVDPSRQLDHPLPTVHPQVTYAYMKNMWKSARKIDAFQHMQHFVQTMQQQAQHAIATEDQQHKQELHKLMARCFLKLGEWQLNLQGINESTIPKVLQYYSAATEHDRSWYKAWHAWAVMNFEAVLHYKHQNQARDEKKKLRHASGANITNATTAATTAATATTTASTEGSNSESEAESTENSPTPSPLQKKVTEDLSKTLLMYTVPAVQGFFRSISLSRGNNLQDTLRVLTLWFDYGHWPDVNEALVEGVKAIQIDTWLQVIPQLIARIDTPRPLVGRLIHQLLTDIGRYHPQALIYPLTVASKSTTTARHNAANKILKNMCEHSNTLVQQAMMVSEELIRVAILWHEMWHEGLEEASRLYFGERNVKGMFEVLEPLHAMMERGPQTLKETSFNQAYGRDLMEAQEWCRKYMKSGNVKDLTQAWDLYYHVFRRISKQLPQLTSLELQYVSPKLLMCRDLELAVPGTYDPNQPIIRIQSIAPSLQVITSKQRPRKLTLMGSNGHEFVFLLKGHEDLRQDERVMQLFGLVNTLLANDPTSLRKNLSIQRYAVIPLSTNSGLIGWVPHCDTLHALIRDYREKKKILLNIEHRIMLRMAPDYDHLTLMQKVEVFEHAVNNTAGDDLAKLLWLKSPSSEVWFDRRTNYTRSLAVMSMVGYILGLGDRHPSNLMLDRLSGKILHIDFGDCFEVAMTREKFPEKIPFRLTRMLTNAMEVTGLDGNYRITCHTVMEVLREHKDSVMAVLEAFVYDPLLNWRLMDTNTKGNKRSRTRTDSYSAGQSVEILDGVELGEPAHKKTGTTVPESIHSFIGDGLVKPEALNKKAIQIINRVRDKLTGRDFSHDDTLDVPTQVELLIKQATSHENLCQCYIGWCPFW

In this experiment the target is human mTOR enzyme (Homo sapiens, UniProt P42345). As to the kind of experiment: HTRF mTOR enzyme (kinase) assay. Type of experiment: biochemical. The settings on record: rated class; 5 μM ATP, 0.2 μM GST-S6K; read-out: hMTOR IC50. Here is the method:
Methods: An HTRF mTOR enzyme assay was developed to assess the compounds' inhibitory activity. The mTOR assay buffer contained 10 mM Hepes (pH 7.4), 50 mM NaCl, […] BSA, 50 mM […], 10 mM MnCl2 and 0.5 mM DTT. […] 20 ng of human mTOR enzyme (<5% pure was preincubated with the compound for 10 minutes followed by the addition of 5 μM ATP and 0.2 μM GST-S6K (Zhang et al., Protein Expression and Purification 46, pp 414-420 (2006)). The reaction was incubated for one hour at 30° C. Anti phospho p70-S6K(Thr389) (˜1.7 ng/well, anti-phospho-p70S6K-cryptate (Pho-p70S6-Kin-K cat#64CUSKAY, from Cisbio)) and anti GST-XL665 (1:1 Ratio with the substrate GST-S6K, anti GST-XL665, cat#61GSTXLB) Cisbio) were added after the reaction was stopped. The plates were read (PHERAstar, BMG) at least 2 hours after adding the anti phospho p70-S6K and the anti GST-XL665.
IC50 DETERMINATIONS: Dose-response curves were plotted from the inhibition data generated, each in duplicate, from 8 point serial dilutions of inhibitory compounds. Concentration of compound was plotted against the HTRF em665/em590 ratio signal. To generate IC50 values, the dose-response curves were fitted to a standard sigmoidal curve and IC50 values were derived by nonlinear regression analysis.
A general note: Time-resolved FRET reads energy transfer from a long-lived donor to a nearby acceptor.
In the case of `COC[C@]1(C(=O)O)CC[C@H](c2nc3c(-c4cnn(-c5ccccc5)c4)cnn3c(N)c2C(C)=O)CC1` [Compound 20, (1R,4R)-4-(6-acetyl-7-amino-3-(1-phenyl-1H-pyrazol-4-yl)pyrazolo[1,5-a]pyrimidin-5-yl)-1-(methoxymethyl)-cyclohexane-carboxylic acid], the IC50 – broadly, the concentration that gives 50% inhibition – lay within 100 to 1000 nM.

Take `COCCO[C@]1(C(=O)O)CC[C@@H](c2nc3c(-c4ccc(-c5ccn(C)n5)[n+]([O-])c4)cnn3c(N)c2S(C)(=O)=O)CC1` [Compound 45, 5-(7-amino-5-((1R,4R)-4-carboxy-4-(2-methoxyethoxy)cyclohexyl)-6-(methylsulfonyl)-pyrazolo[1,5-a]pyrimidin-3-yl)-2-(1-methyl-1H-pyrazol-3-yl)pyridine 1-oxide]: the IC50 fell in the range of 1 to 100 nM.

Take `COCCO[C@]1(C(=O)O)CC[C@@H](c2nc3c(-c4cnc(-c5ccn(C)n5)nc4)cnn3c(N)c2S(C)(=O)=O)CC1` [Compound 49, (1R,4R)-4-(7-amino-3-(2-(1-methyl-1H-pyrazol-3-yl)pyrimidin-5-yl)-6-(methylsulfonyl)-pyrazolo[1,5-a]-pyrimidin-5-yl)-1-(2-mcthoxyethoxy)-cyclohexanecarboxylic acid]: the IC50 is 1 to 100 nM.

In the case of `COCCO[C@]1(C(=O)O)CC[C@@H](c2nc3c(-c4cnn(-c5ccc(S(C)(=O)=O)cc5)c4)cnn3c(N)c2S(C)(=O)=O)CC1` [Compound 53, (1R,4R)-4-(7-amino-6-(methylsulfonyl)-3-(1-(4-(methylsulfonyl)phenyl)-1H-pyrazol-4-yl)pyrazolo[1,5-a]pyrimidin-5-yl)-1-(2-methoxyethoxy)cyclohexanecarboxylic acid], the IC50 lay in the range of 100 to 1000 nM.

Regarding `COCCO[C@]1(C(=O)O)CC[C@H](c2nc3c(-c4ccc(-c5nccs5)nc4)cnn3c(N)c2C(C)=O)CC1` [Compound 59], the IC50 was 1 to 100 nM.

Take `COCCO[C@]1(C(=O)O)CC[C@H](c2nc3c(-c4ccc(-c5cscn5)nc4)cnn3c(N)c2C(C)=O)CC1` [Compound 61, (1S,4S)-4-(6-acetyl-7-amino-3-(6-(thiazol-4-yl)pyridin-3-yl)pyrazolo[1,5-a]pyrimidin-5-yl)-1-(2-methoxyethoxy) cyclohexanecarboxylic acid]: the IC50 lay in the range of 1 to 100 nM.

With `CO[C@]1(CC(=O)O)CC[C@H](c2nc3c(-c4ccc(-c5ccccc5)nc4)cnn3c(N)c2Br)CC1` [Compound 80, 2-((1S,4S)-4-(7-amino-6-bromo-3-(6-phenylpyridin-3-yl)pyrazolo[1,5-a]pyrimidin-5-yl)-1-methoxycyclohexyl)acetic acid], the IC50 lay within 100 to 1000 nM.

Regarding `CO[C@]1(CC(=O)O)CC[C@@H](c2nc3c(-c4ccc(-c5ccccc5)nc4)cnn3c(N)c2Br)CC1` [Compound 81], the IC50 was 100 to 1000 nM.

On to `COCCO[C@]1(C(=O)N(C)OC)CC[C@@H](c2nc3c(-c4cnn(-c5ccccc5)c4)cnn3c(N)c2S(C)(=O)=O)CC1` [Compound 97, (1R,4R)-4-(7-amino-6-(methylsulfonyl)-3-(1-phenyl-1H-pyrazol-4-yl)pyrazolo[1,5-a]pyrimidin-5-yl)-N-methoxy-1-(2-methoxyethoxy)-N-methylcyclohexane-carboxamide], for which the IC50 is 1 to 100 nM.

With `CCONC(=O)[C@]1(OCCOC)CC[C@H](c2nc3c(-c4cnn(-c5ccccc5)c4)cnn3c(N)c2S(C)(=O)=O)CC1` [Compound 98, (1R,4R)-4-(7-amino-6-(methylsulfonyl)-3-(1-phenyl-1H-pyrazol-4-yl)pyrazolo[1,5-a]pyrimidin-5-yl)-N-ethoxy-1-(2-methoxyethoxy)-cyclohexane-carboxamide], the IC50 lay within 1 to 100 nM.

Turning to `COCCO[C@]1(C(=O)NOCC2CC2)CC[C@@H](c2nc3c(-c4cnn(-c5ccccc5)c4)cnn3c(N)c2S(C)(=O)=O)CC1` [Compound 99, (1R,4R)-4-(7-amino-6-(methylsulfonyl)-3-(1-phenyl-1H-pyrazol-4-yl)pyrazolo[1,5-a]pyrimidin-5-yl)-N-(cyclopropylmethoxy)-1-(2-methoxyethoxy)-cyclohexane-carboxamide], the IC50 was in the range of 1 to 100 nM.

Regarding `COCCONC(=O)[C@]1(OCCOC)CC[C@H](c2nc3c(-c4cnn(-c5ccccc5)c4)cnn3c(N)c2S(C)(=O)=O)CC1` [Compound 101], the IC50 is 1 to 100 nM.

For `COCCO[C@]1(C(=O)NOCC2CC2)CC[C@@H](c2nc3c(-c4ccc(-c5ccccc5)nc4)cnn3c(N)c2S(C)(=O)=O)CC1` [Compound 106, (1R,4R)-4-(7-amino-6-(methylsulfonyl)-3-(6-phenylpyridin-3-yl)pyrazolo[1,5-a]pyrimidin-5-yl)-N-(cyclopropylmethoxy)-1-(2-methoxyethoxy)-cyclohexane-carboxamide], the IC50 is 1 to 100 nM.

As to `COCCO[C@]1(C(=O)c2nnc[nH]2)CC[C@H](c2nc3c(-c4cnn(-c5ccccc5)c4)cnn3c(N)c2S(C)(=O)=O)CC1` [Compound 123, ((1S,4S)-4-(7-amino-6-(methylsulfonyl)-3-(1-phenyl-1H-pyrazol-4-yl)pyrazolo[1,5-a]pyrimidin-5-yl)-1-(2-methoxyethoxy)cyclohexyl)(4H-1,2,4-triazol-3-yl)methanone], the IC50 lay in the range of 1 to 100 nM.

On to `COCCO[C@]1(C(=O)c2nnc[nH]2)CC[C@H](c2nc3c(-c4ccc(-c5ccccc5)nc4)cnn3c(N)c2S(C)(=O)=O)CC1` [Compound 124, ((1S,4S)-4-(7-amino-6-(methylsulfonyl)-3-(6-phenylpyridin-3-yl)pyrazolo[1,5-a]pyrimidin-5-yl)-1-(2-methoxyethoxy)cyclohexyl)(4H-1,2,4-triazol-3-yl)methanone], for which the IC50 lay in the range of 1 to 100 nM.

As to `COCCO[C@]1(C(=O)CO)CC[C@@H](c2nc3c(-c4ccc(-c5ccccc5)nc4)cnn3c(N)c2S(C)(=O)=O)CC1` [Compound 130, 1-((1R,4R)-4-(7-amino-6-(methylsulfonyl)-3-(6-phenylpyridin-3-yl)pyrazolo[1,5-a]pyrimidin-5-yl)-1-(2-methoxyethoxy)cyclohexyl)-2-hydroxyethanone], the IC50 lay within 1 to 100 nM.

As for `CC(=O)c1c(C2CCC(O)(CO)CC2)nc2c(-c3ccc(-c4ccc(O)nc4)nc3)cnn2c1N` (centres unmarked) [Compound 147, 1-(7-amino-3-(6′-hydroxy-2,3′-bipyridin-5-yl)-5-(4-hydroxy-4-(hydroxymethyl)-cyclohexyl)-pyrazolo-[1,5-a]pyrimidin-6-yl)ethanone], the IC50 was in the range of 1 to 100 nM.

As to `CC(=O)c1c(N)n2ncc(-c3cnn(-c4cnn(C)c4)c3)c2nc1[C@H]1CC[C@](O)(CO)CC1` [Compound 149, 1-(7-amino-5-((1S,4S)-4-hydroxy-4-(hydroxymethyl)-cyclohexyl)-3-(1′-methyl-1′H-1,4′-bipyrazol-4-yl)pyrazolo[1,5-a]pyrimidin-6-yl)ethanone], the 50% inhibitory concentration (IC50) lay within 100 to 1000 nM.

For `COC(=O)c1cccc(-c2ccc(-c3cnn4c(N)c(C(C)=O)c(C5CCC(O)(CO)CC5)nc34)cn2)c1` (centres unmarked) [Compound 150, methyl 3-(5-(6-acetyl-7-amino-5-(4-hydroxy-4-(hydroxymethyl)-cyclohexyl)-pyrazolo-[1,5-a]pyrimidin-3-yl)pyridin-2-yl)benzoate], the IC50 lay in the range of 1 to 100 nM.

As for `CC(=O)c1c(C2CCC(O)(CO)CC2)nc2c(-c3ccc(-c4cccc(C(=O)O)c4)nc3)cnn2c1N` (centres unmarked) [Compound 151, 3-(5-(6-acetyl-7-amino-5-(4-hydroxy-4-(hydroxymethyl)-cyclohexyl)-pyrazolo-[1,5-a]pyrimidin-3-yl)pyridin-2-yl)benzoic acid], the IC50 was 1 to 100 nM.
